Test system: E17 hippocampal neurons
Assay: Aβ-induced death of hippocampal neurons
Assay type: cell-based
Method: Using previously well established protocols, Aβ was preincubated for 3 days in water to allow formation of oligomers. E17 hippocampal neurons were incubated for 5 days to allow for maturation prior to addition of Aβ with test compounds.

Compound | protection against Aβ1-42-induced death (Aβ1-42 10 μM, NGF at 100 pg/ml) | loss of neurons (Aβ1-42 10 μM or 30 μM, 3 day exposure, no compound) [%]
Cn1c(=O)c2c(ncn2CC(=O)NCc2ccco2)n(C)c1=O [Compound 6] | failed to block | –
Aβ1-42: amyloid-β, preincubated for 3 days in water to allow formation of oligomers [reference compound] | – | ~40

— patent US7723328B2, “Methods of facilitating cell survival using neurotrophin mimetics” (The University of North Carolina at Chapel Hill, priority 2005, dated 2010)
